The nature of this data set: Aqueous solubility of the compound in Britton-Robinson buffer after 48 hrs at pH 6.5 by UV-vis spectrophotometry based shake flask method. The format is physicochemical.

The term thermodynamic solubility denotes solubility found after equilibrating the solid with the medium.

Converted amounts (≈) assume the structure as drawn.

The compound `O=C(O)Cn1ccc2ccc(-c3cn(-c4ccc(O)c(F)c4)nn3)nc2c1=O` registered a solubility (thermodynamic) at 48 h of 288 µg/mL (≈ 755 µM).

Source of the values: ChEMBL document CHEMBL4130596, “Adding a Hydrogen Bond May Not Help: Naphthyridinone vs Quinoline Inhibitors of Macrophage Migration Inhibitory Factor” (ACS Med Chem Lett, 2017).
